Data reported in patent publication US20060008512A1, “Composition and methods for improved animal performance” (priority 2004, published 2006).
Read-outs that look alike come from different tables or passages of the source. Marks after values point to notes of the source that are not given here.

Legend:
[1] = tested on: Hy-Line W-36 White Leghorn hens; conditions: for Egg Shell, % (washed, dried): 6 & 10 d rooms combined; for Whole egg weight (mean±SEM): 4 day period after start of test diets
Protocol: Experiment 2. […] The photoperiod was 17 hours of light per day (0330 hours to 2030 hours).
The objective was to use T4 to humanely induce molting in hens that are continuously provided with ad libitum access to palatable feed meeting or exceeding all National Research Council (1994) standards. Developing a fully efficacious yet affordable molting protocol was predicated on determining the minimum effective level for T4 supplementation. Factors that potentially may affect the required level of T4 supplementation include: (1) uncertainty regarding the efficiency of T4 absorption by the gastrointestinal tract, (2) the possibility that continuous dietary ingestion of T4 could trigger substantially different biological responses when compared single daily injections, and (3) the likelihood that daily T4 intake would diminish in parallel with molt-related reductions in feed intake associated with cessation in egg production. A spontaneous and voluntary loss of appetite (anorexia) commonly accompanies seasonal molting and broodiness in a variety of avian species (Berry, 2003; Webster, 2003). Accordingly, the responses of hens to diets containing 10, 20, and 40 mg T4/kg, to bracket the anticipated range of T4 needed to cause an effective molt, were determined.

Bovans caged laying hens = assay: Experiment 6: molting of caged laying hens with dietary L-thyroxine or TIC plus MgO or sodium salicylate; assay type: in vivo, chicken; conditions: 10 hours of light daily
From the text: Experiment 6. Molting of Caged Laying with Dietary L-Thyroxine or Thyroactive Iodinated Casein Plus MgO or Sodium Salicylate.
In Experiment 6, a conventional feed withdrawal molting procedure was compared with 5 dietary thyroxine treatments. Body weight loss after 9 days was greater, days to 0% egg production (9 days) shorter, ovary plus oviduct weight numerically lighter on day 9 of treatment, but eggs collected on day 4 of treatment had thinner shells, in the feed withdrawal group.

[2] = tested on: fast-growing broiler chickens; conditions: low ambient temperature and pelleted feed; untreated 21.5%; cited from earlier work
[3] = 20 mg/kg of feed 10 d from day 5, Day 7
[4] = 20 mg/kg of feed 10 d from day 5, Day 10
[5] = 20 mg/kg of feed 10 d from day 5, Day 14
[6] = 20 mg/kg of feed 10 d from day 5, Day 30
[7] = 40 mg/kg of feed 6 d from day 5, Day 7
[8] = 40 mg/kg of feed 6 d from day 5, Day 10
[9] = 40 mg/kg of feed 6 d from day 5, Day 14
[10] = 40 mg/kg of feed 6 d from day 5, Day 30
[11] = 40 mg/kg of feed 10 d from day 5, Day 7
[12] = 40 mg/kg of feed 10 d from day 5, Day 10
[13] = 40 mg/kg of feed 10 d from day 5, Day 14
[14] = 40 mg/kg of feed 10 d from day 5, Day 30
[15] = 40 mg T4/kg diet, listed as L-T

## N[C@@H](Cc1cc(I)c(Oc2cc(I)c(O)c(I)c2)c(I)c1)C(=O)O [L-thyroxine, 3,5,3′,5′-tetraiodo-L-thyronine]
[1]; 20 mg/kg of feed 6 d from day 5, day 28
  Hen-day egg production: 89%
[1]; 20 mg/kg of feed 6 d from day 5, day 30
  Hen-day egg production: 61%
[1]; 20 mg/kg of feed 10 d from day 5, Day 1
  Body weight (BW): 1680 g
[1]; [3]
  Body weight (BW): 1533 g
  Body weight change from day 1 (% BWC): −8.8%
[1]; [4]
  Body weight (BW): 1431 g
  Body weight change from day 1 (% BWC): −14.8%
[1]; [5]
  Body weight (BW): 1373 g
  Body weight change from day 1 (% BWC): −18.3%
[1]; [6]
  Body weight (BW): 1448 g
  Body weight change from day 1 (% BWC): −13.8%
[1]; 20 mg/kg of feed, Days 2 to 4
  Egg Shell, % (washed, dried): 8.38 (n = 10) %
[1]; 20 mg/kg of feed, Days 5 to 6
  Egg Shell, % (washed, dried): 8.08 (n = 13) %
[1]; 20 mg/kg of feed, Days 7 to 8
  Egg Shell, % (washed, dried): 5.56 (n = 2) %
[1]; 40 mg T4/kg diet for 10 days
  Egg production: cease completely
[1]; 40 mg/kg of feed 6 d from day 5, Day 1
  Body weight (BW): 1629 g
[1]; [7]
  Body weight (BW): 1443 g
  Body weight change from day 1 (% BWC): −11.4%
[1]; [8]
  Body weight (BW): 1350 g
  Body weight change from day 1 (% BWC): −17.1%
[1]; [9]
  Body weight (BW): 1396 g
  Body weight change from day 1 (% BWC): −14.3%
[1]; [10]
  Body weight (BW): 1481 g
  Body weight change from day 1 (% BWC): −9.1%
[1]; 40 mg/kg of feed 6 d from day 5, day 4
  Hen-day egg production: 67%
[1]; 40 mg/kg of feed 6 d from day 5, day 6
  Hen-day egg production: 42%
[1]; 40 mg/kg of feed 6 d from day 5, day 8
  Hen-day egg production: 8%
[1]; 40 mg/kg of feed 6 d from day 5, day 10
  Hen-day egg production: 0%
[1]; 40 mg/kg of feed 6 d from day 5, day 12
  Hen-day egg production: 0%
[1]; 40 mg/kg of feed 6 d from day 5, day 14
  Hen-day egg production: 0%
[1]; 40 mg/kg of feed 6 d from day 5, day 16
  Hen-day egg production: 0%
[1]; 40 mg/kg of feed 6 d from day 5, day 18
  Hen-day egg production: 8%
[1]; 40 mg/kg of feed 6 d from day 5, day 20
  Hen-day egg production: 25%
[1]; 40 mg/kg of feed 6 d from day 5, day 22
  Hen-day egg production: 25%
[1]; 40 mg/kg of feed 6 d from day 5, day 24
  Hen-day egg production: 50%
[1]; 40 mg/kg of feed 6 d from day 5, day 26
  Hen-day egg production: 17%
[1]; 40 mg/kg of feed 6 d from day 5, day 28
  Hen-day egg production: 33%
[1]; 40 mg/kg of feed 6 d from day 5, day 30
  Hen-day egg production: 33%
[1]; 40 mg/kg of feed 10 d from day 5, Day 1
  Body weight (BW): 1572 g
[1]; [11]
  Body weight (BW): 1392 g
  Body weight change from day 1 (% BWC): −11.5%
[1]; [12]
  Body weight (BW): 1309 g
  Body weight change from day 1 (% BWC): −16.7%
[1]; [13]
  Body weight (BW): 1245 g
  Body weight change from day 1 (% BWC): −20.8%
[1]; [14]
  Body weight (BW): 1322 g
  Body weight change from day 1 (% BWC): −15.9%
[1]; 40 mg/kg of feed, Days 2 to 4
  Egg Shell, % (washed, dried): 8.34 (n = 6) %
[1]; 40 mg/kg of feed, Days 5 to 6
  Egg Shell, % (washed, dried): 7.82 (n = 6) %
[1]; 40 mg/kg of feed, Days 7 to 8
  Egg Shell, % (washed, dried): 6.63 (n = 3) %
[1]; 10, 20, 40 mg T4/kg diets, 6 or 10 days
  Mortality: No mortal-ity occurred
[1]; 10 ppm T4
  Whole egg weight (mean±SEM): 62 ± 2 g
[1]; 20 and 40 mg T4/kg feed
  Time to reduced egg production: ≤ 4 days
[1]; 20 ppm T4
  Whole egg weight (mean±SEM): 65 ± 2 g
[1]; 40 ppm T4
  Whole egg weight (mean±SEM): 65 ± 3 g
[1]; hens that had entirely ceased egg production after the test diets
  Size of regressed reproductive tracts at necropsy: ≤ 50 % normal size
Bovans caged laying hens; 20 mg T4/kg diet
  2&4 Jun. 05 Egg Weight: 58.68 g
  4 Jun. 05 Shell + Membrane: 0.466^a mm
  9 Jun. 05 (9th d Trt) Body Wt Change: −0.50^b lb
  9 Jun. 05 Ovary + Oviduct: 4.59 % B Wt
  25 May 05 Initial Body Wt: 3.49 lb
  Days to 0% Egg Prod. (by Replicate): 12.0^a Days
Bovans caged laying hens; 40 mg T4/kg diet
  2&4 Jun. 05 Egg Weight: 60.17 g
  4 Jun. 05 Shell + Membrane: 0.446^a mm
  9 Jun. 05 (9th d Trt) Body Wt Change: −0.54 lb
  9 Jun. 05 Ovary + Oviduct: 3.19 % B Wt
  25 May 05 Initial Body Wt: 3.57 lb
  Days to 0% Egg Prod. (by Replicate): 11 days
Bovans caged laying hens; [15]
  9 Jun. 05 (9th d Trt) Body Wt Change: −0.60^b lb
  Days to 0% Egg Prod. (by Replicate): 11.0^a Days
[2]
  Ascites: 7%
